According to US12421257B2, “Compositions and methods for inhibiting group II intron RNA” (YALE UNIVERSITY, priority 2018, dated 2025):
In brackets after ≈: the same amount, converted by molar mass. Where two headings read alike, the source gives them in different places.

Experiments:
ai5γ group II intron = assay: Radioanalytic self-splicing assay of SE RNA (Ki); assay type: biochemical, Saccharomyces cerevisiae; settings: 8 mM MgCl2, 100 mM KCl, pH 7.5, 30° C.
How it was run: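 Internally labeled SE RNA (2 nM) self-spliced with varying inhibitor in 50 mM MOPS pH 7.5, 8 mM MgCl2, 100 mM KCl at 30° C; time points resolved on 5% denaturing PAGE. kobs from single-exponential fits, Ki from non-competitive model kobs=kmax/(1+[I]/Ki); mean±s.e.m. of 2–4 runs.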

S. cerevisiae = assay: Yeast respiration assay in S. cerevisiae (MIC in YPD / YPGE); assay type: cell-based, Saccharomyces cerevisiae; settings: Saccharomyces cerevisiae, 30° C.
Method: Yeast respiration assays were conducted either in liquid YPD media (BD Bacto Yeast Extract, BD Bacto Peptone, 2% glucose) or in YPGE media (BD Bacto Yeast Extract, BD Bacto Peptone, 3% glycerol, 3% ethanol), essentially as described for the antifungal MIC assays (see below). To initiate these experiments, 100 μl of a fresh stock solution was prepared for each compound (3.2 mg/ml for Amphotericin B and 12.8 mg/ml for each test compounds) in DMSO. This concentrated stock solution was placed in the first well of 12-well row on a 96-well plate. The subsequent nine wells in this row contained 50 μl of DMSO for serial dilution. From the first well, 50 μl of the compound stock was withdrawn, transferred to the second well and mixed. This process was repeated from the second and subsequent wells, resulting in a 1:2 serial dilution of the stock into DMSO. Wells 11 and 12 contained DMSO only, to be used as no compound control and sterility control, with no inoculum added, respectively. After preparing this plate, 2.5 μl from each of the 12 wells was transferred to the wells of a separate 96-well plate, each of which contained 122.5 μl of YPD or YPGE medium, resulting in a set of serial dilutions of compound into growth media in a volume of 125 μl. Then 50 μl from each of these dilutions were transferred onto a third 96-well plate (the assay plate) and mixed with an equal volume (50 μl) of freshly prepared yeast inoculum in YPD or YPGE medium set to provide 0.5×10^3 to 2.5×10^3 colony forming units per 1 mL (wells 1-11), or YPD/YPGE alone (sterility control, well 12). The final compound concentration range of the assay was 0.25-128 μg/ml for test compounds and 0.0625-32 μg/ml for Amphotericin B. The final concentration of DMSO was 1%. Plates were incubated at 30° C. and visually analyzed for turbidity after 24 and 48 hours of incubation. The lowest compound concentration at which no growth was apparent is reported as the MIC (Table 1). All experiments were performed in triplicate.

[1] = test system: ai5γ group II intron (D135 ribozyme); assay: Fluorescent D135 ribozyme cleavage assay (IC50); assay type: biochemical, Saccharomyces cerevisiae; settings: for IC50: D135 ribozyme cleavage of substrate 17/2 DL, 100 mM MgCl2, 500 mM KCl, 37° C., 10 minutes; for In vitro inhibitory activity, SAR statement (in words): relative to parent scaffold
How it was run: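 D135 ribozyme (20 nM) with double-labeled substrate 17/2 DL (20 nM) in 50 mM MOPS pH 7.0, 100 mM MgCl2, 0.5 M KCl; 19 inhibitor concentrations, 5 nM–1 mM, 10 min at 37 °C, EDTA quench, fluorescence read. Triplicates fit to 4-parameter logistic for IC50; mean±s.e.m.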

[2] = YPD medium, read-out: MIC in YPD (glucose)
[3] = YPGE medium, read-out: MIC in YPGE (glycerol)

Structure (SMILES) | Ki (ai5γ group II intron) [µM] | MIC (S. cerevisiae; [2]) [µg/mL] | MIC (S. cerevisiae; [3]) [µg/mL] | IC50 [1] [µM] | In vitro inhibitory activity, SAR statement (in words) [1]
O=C(c1cc(O)c(O)c(O)c1)c1cc2cc(-c3ccc(CO)cc3)ccc2o1 [APY-084, 5-({5-[4-(Hydroxymethyl)phenyl]-1-benzofuran-2-yl}carbonyl)benzene-1,2,3-triol] | 1.3 ± 0.4 | > 128 | 16 to 32 (≈ 42.5 to 85 µM) | 0.9 ± 0.1 | –
Cc1ccncc1-c1ccc2oc(C(=O)c3cc(O)c(O)c(O)c3)cc2c1 [APY-081, 5-{[5-(4-Methylpyridin-3-yl)-1-benzofuran-2-yl]carbonyl}benzene-1,2,3-triol] | 5.3 ± 0.2 | > 128 | 32 (≈ 88.6 µM) | 6.8 ± 1.1 | –
CC(=O)c1ccc(-c2ccc3oc(C(=O)c4cc(O)c(O)c(O)c4)cc3c2)cc1 [APY-101, 1-(4-{2-[(3,4,5-Trihydroxyphenyl)carbonyl]-1-benzofuran-5-yl}phenyl)ethan-1-one] | 2.1 ± 0.2 | > 128 | 32 (≈ 82.4 µM) | 1.5 ± 0.1 | –
O=C1/C(=C/c2cc(O)cc(O)c2)Oc2cc(O)cc(O)c21 [APY-014, (Z)-2-(3,5-Dihydroxybenzylidene)-4,6-dihydroxybenzofuran-3(2H)-one] | 251 ± 31 | > 128 | > 128 | 266 ± 37 | nearly complete loss of activity
Br.CCN(CC)Cc1ccc(-c2ccc3oc(C(=O)c4cc(O)c(O)c(O)c4)cc3c2)cc1 [APY-090, 5-[(5-{4-[(Diethylamino)methyl]phenyl}-1-benzofuran-2-yl)carbonyl]benzene-1,2,3-triol hydrobromide] | 0.37 ± 0.04 | > 128 | 64 | 2.1 ± 0.4 | –
CCCCNS(=O)(=O)c1ccc(-c2ccc(-c3nc(-c4cc(O)c(O)c(O)c4)cs3)cc2)cc1 [APY-093, N-Butyl-4-{4-[4-(3,4,5-trihydroxyphenyl)-1,3-thiazol-2-yl]phenyl}benzene-1-sulfonamide] | 53 ± 5 | > 128 | > 128 | 86 ± 3 | substantial loss of activity
